The source of these data is US12642885B2, “Hemostatic and wound healing turmeric-polymer composite materials” (priority 2021, dated 2026).

In experiment [1] the test system is blood clotting. As to the kind of experiment: Effect of curcumin alone on blood clotting. The text has this:
Turmeric powder is the dried powdered rhizomes of Curcuma longa of the ginger family. Turmeric powder comprises 60-70% carbohydrates, 6-13% water, 6-8% protein, 5-10% fat, 3-7% dietary minerals, 3-7% essential oils such as turmerone and germacrone, 2-7% dietary fiber, and 1-6% curcuminoids. (including curcumin). […] The turmeric powder may be passed through a 100 mesh (149 micron) sieve such that the resulting particles are smaller than 149 microns in diameter. Generally, turmeric powder is present in the suspension at a concentration between 0.1 g per mL and 2 g per ml. In one embodiment, the concentration is between 0.1 g per mL and 1 g per mL. In yet another embodiment, the concentration is between 0.1 g per mL and 0.5 g per mL.

Another experiment has as its system most cancer cell lines. The following applies: cited from earlier work.
In experiment [2] the test system is blood clotting. The following applies: Kim et al., BMB Rep. 2012; cited from earlier work.

One may read the IC50 as the midpoint of a concentration-inhibition curve. In the case of `COc1cc(/C=C/C(=O)CC(=O)/C=C/c2ccc(O)c(OC)c2)ccc1O` [curcumin], the “promotion of blood clotting” value with blood clotting [1] is recorded as “not found to promote blood clotting”. In the experiment on most cancer cell lines, the anti-cancer activity entry is given as “moderate”. For the same compound, the IC50 in the experiment on most cancer cell lines (most cancer cell lines, peer reviewed literature) is 20 µM. Further, the anticoagulant activity entry in the experiment on blood clotting [2] is “well-known anticoagulant”.
